Patent US20220089521A1, “ETHYLENEDIAMINE COMPOUND AND USE THEREOF” (priority 2018, published 2022)
Converted amounts (≈) assume the structure as drawn. “And” between values parts separate entries of the source, which are not always exact repeats. Equal values may be shown once. Where a name gives a salt, the structure may show the parent alone. Read-outs that look alike come from different tables or passages of the source.

Experiments:
[1] = test system: Mycobacterium tuberculosis standard strain H37Rv; test: Microplate Alamar Blue Assay (MABA), minimum inhibitory concentration; type: cell-based; conditions: for MIC: Mycobacterium tuberculosis; for in vitro anti-tuberculosis activity (in words): experimental data in Table 1
[2] = H37Rv, 7H9 liquid medium, MABA, lowest drug concentration that prevented the color change (blue to pink), read-out: MIC

For CCCCCCCCNCCNC1C2CC3CC(C2)CC1C3 (stereo not drawn) (as salt: hydrochloride) [XHJ-5-3, N-(adamantan-2-yl)-N′-octyl-ethane-1,2-diamine dihydrochloride], which melting point is on record?
Its melting point is 224 to 226 °C.

With CCCCCCNCCNC1C2CC3CC(C2)CC1C3 (stereo not drawn) (as salt: hydrochloride) [XHJ-5-5, N-(adamantan-2-yl)-N′-hexyl-ethane-1,2-diamine dihydrochloride] as the molecule, how does the melting point read?
Its melting point is 212 to 216 °C.

With NNC(=O)c1ccncc1 [INH, isoniazid, reference compound] as the molecule, how does the MIC [1, 2] read?
Its MIC is 0.05 µg/mL (≈ 0.365 µM).

With CO[C@H]1/C=C/O[C@@]2(C)Oc3c(C)c(O)c4c(O)c(c(/C=N/N5CCN(C)CC5)c(O)c4c3C2=O)NC(=O)/C(C)=C\C=C\[C@H](C)[C@H](O)[C@@H](C)[C@@H](O)[C@@H](C)[C@H](OC(C)=O)[C@@H]1C [RFP, rifampin, reference compound] as the molecule, how does the MIC [1, 2] read?
The MIC was 0.048 µg/mL (≈ 0.0583 µM).

For CC(C)=CCC/C(C)=C/C(=O)NCCNC1C2CC3CC(C2)CC1C3.Cl (stereo not drawn) [XHJ-2-32, 3,7-dimethyl-oct-2,6-dienoic acid [2-(adamantan-2-yl-amino)ethyl]amide hydrochloride], which melting point is on record?
The melting point was 150 to 164 °C.

And the MIC ([1]; H37RV)?
The MIC was 7.75 µg/mL.

What about the “in vitro anti-tuberculosis activity (in words)” value [1] of the same molecule?
Its value is “good activity”.

With CC(C)=CCC/C(C)=C/CNCC(=O)NC1C2CC3CC(C2)CC1C3.Cl (stereo not drawn) [XHJ-2-37, N-adamantan-2-yl-2-(3,7-dimethyl-oct-2,6-dienylamino)-acetamide hydrochloride] as the molecule, how does the melting point read?
The melting point was 168 to 172 °C.

What about the MIC ([1]; H37RV) of the same molecule?
Its MIC is < 0.5 µg/mL.

What about the “in vitro anti-tuberculosis activity (in words)” value [1] of the same molecule?
The value was “good activity”.

With CCS(=O)(=O)N(C/C=C(\C)CCC=C(C)C)CCN.Cl [XHJ-2-39, N-geranyl-N-(2-aminoethyl)ethylsulfonamide hydrochloride] as the molecule, how does the melting point read?
The melting point was 103 to 106 °C.

And the MIC [1, 2]?
Its MIC is > 32 µg/mL.

What does the source list for CC(C)=CCC/C(C)=C/CN(CCN)S(=O)(=O)c1ccc(C)cc1.Cl [XHJ-2-45, N-geranyl-N-(2-aminoethyl)-p-toluenesulfonamide hydrochloride]?
melting point: 134 to 137 °C; MIC [1, 2]: 31.5 µg/mL

With CCS(=O)(=O)N(C/C=C(\C)CCC=C(C)C)CCNC1C2CC3CC(C2)CC1C3.Cl (stereo not drawn) [XHJ-3-1, N-adamantan-2-yl-N′,N′-ethylsulfonyl-(3,7-dimethyl-oct-2,6-dienyl)-ethane-1,2-diamine hydrochloride] as the molecule, how does the melting point read?
The melting point was 108 to 112 °C and 103 to 106 °C.

And the MIC ([1]; H37RV)?
The MIC was 6.96 µg/mL.

What about the “in vitro anti-tuberculosis activity (in words)” value [1] of the same molecule?
Its value is “good activity”.

Which results are given for CC(C)=CCC/C(C)=C/CN(CCNC1C2CC3CC(C2)CC1C3)S(=O)(=O)c1ccc(C)cc1.Cl (stereo not drawn) [XHJ-3-3, N-adamantan-2-yl-N′,N′-p-toluenesulfonyl-(3,7-dimethyl-oct-2,6-dienyl)-ethane-1,2-diamine hydrochloride]?
melting point: 179 to 182 °C; MIC ([1]; H37RV): 3.76 µg/mL; in vitro anti-tuberculosis activity (in words) [1]: good activity

With CC(C)=CCC/C(C)=C/CN(CCNC1C2CC3CC(C2)CC1C3)C(=O)/C=C(\C)CCC=C(C)C (stereo not drawn) [XHJ-3-11, N-adamantan-2-yl-N′,N′-(3,7-dimethyl-oct-2,6-dienyl)-(3,7-dimethyl-oct-2,6-dienoyl)-ethane-1,2-diamine] as the molecule, how does the MIC ([1]; H37RV) read?
The MIC was > 32 µg/mL.

What does the source list for CC(C)=CCC/C(C)=C/CN(CCN(C(=O)c1c[nH]c2ccccc12)C1C2CC3CC(C2)CC1C3)C(=O)c1c[nH]c2ccccc12 (stereo not drawn) [XHJ-3-15, N,N-adamantan-2-yl-(3-indolylformyl)-N′,N′-(3,7-dimethyl-oct-2,6-dienyl)-(3-indolylformyl)-ethane-1,2-diamine]?
melting point: 248 to 252 °C; MIC ([1]; H37RV): > 32 µg/mL

For CC(C)=CCC/C(C)=C/CN(CCNC1C2CC3CC(C2)CC1C3)C(=O)CCc1c[nH]c2ccccc12 (stereo not drawn) [XHJ-3-27, N-adamantan-2-yl-N′,N′-(3-indolylpropionyl)-(3,7-dimethyl-oct-2,6-dienyl)-ethane-1,2-diamine], which MIC ([1]; H37RV) is on record?
The MIC was 1.96 µg/mL (≈ 3.91 µM).

What about the “in vitro anti-tuberculosis activity (in words)” value [1] of the same molecule?
The value was “good activity”.

Which results are given for COc1cc(C(=O)N(C/C=C(\C)CCC=C(C)C)CCNC2C3CC4CC(C3)CC2C4)cc(OC)c1OC (stereo not drawn) [XHJ-3-29, N-adamantan-2-yl-N′,N′-(3,4,5-trimethoxybenzoyl)-(3,7-dimethyl-oct-2,6-dienyl)-ethane-1,2-diamine]?
MIC ([1]; H37RV): 3.91 µg/mL (≈ 7.45 µM); in vitro anti-tuberculosis activity (in words) [1]: good activity

Which results are given for CCCCCCCCCCC(=O)N(C/C=C(\C)CCC=C(C)C)CCNC1C2CC3CC(C2)CC1C3 (stereo not drawn) [XHJ-3-31, N-adamantan-2-yl-N′,N′-undecanoyl-(3,7-dimethyl-oct-2,6-dienyl)-ethane-1,2-diamine]?
MIC ([1]; H37RV): 2.84 µg/mL (≈ 5.7 µM); in vitro anti-tuberculosis activity (in words) [1]: good activity

Which results are given for CC(C)=CCC/C(C)=C/CN(CCN)C1C2CC3CC(C2)CC1C3 (stereo not drawn) [XHJ-3-45, N,N-(adamantan-2-yl)-(3,7-dimethyl-oct-2,6-dienyl)-ethane-1,2-diamine]?
melting point: 102 to 104 °C; MIC ([1]; H37RV): < 0.5 µg/mL; in vitro anti-tuberculosis activity (in words) [1]: better activity

Which MIC [1, 2] does the source give for CCS(=O)(=O)NCCNC1C2CC3CC(C2)CC1C3 (stereo not drawn) [XHJ-3-46, N-(adamantan-2-yl)-N′-ethylsulfonyl-ethane-1,2-diamine] here?
The MIC was > 32 µg/mL.

Which MIC ([1]; H37RV) does the source give for CC(C)=CCC/C(C)=C/CN(CCN(Cc1ccccc1)C1C2CC3CC(C2)CC1C3)Cc1ccccc1 (stereo not drawn) [XHJ-4-11, N,N-(adamantan-2-yl)-benzyl-N′,N′-(3,7-dimethyl-oct-2,6-dienyl)-benzyl-ethane-1,2-diamine] here?
Its MIC is 30.8 µg/mL (≈ 60.3 µM).

Which MIC ([1]; H37RV) does the source give for CCCCCCCCN(C/C=C(\C)CCC=C(C)C)CCN(CCCCCCCC)C1C2CC3CC(C2)CC1C3 (stereo not drawn) [XHJ-4-15, N,N-(adamantan-2-yl)-octyl-N′,N′-(3,7-dimethyl-oct-2,6-dienyl)-octyl-ethane-1,2-diamine] here?
The MIC was > 32 µg/mL.

Which MIC ([1]; H37RV) does the source give for CCCCCCCCNCCNC1C2CC3CC(C2)CC1C3 (stereo not drawn) [XHJ-5-3, N-(adamantan-2-yl)-N′-octyl-ethane-1,2-diamine dihydrochloride] here?
Its MIC is 0.986 µg/mL.

What about the “in vitro anti-tuberculosis activity (in words)” value [1] of the same molecule?
Its value is “better activity”.

For CCCCCCNCCNC1C2CC3CC(C2)CC1C3 (stereo not drawn) [XHJ-5-5, N-(adamantan-2-yl)-N′-hexyl-ethane-1,2-diamine dihydrochloride], which MIC ([1]; H37RV) is on record?
The MIC was 0.982 µg/mL.

What about the “in vitro anti-tuberculosis activity (in words)” value [1] of the same molecule?
Its value is “better activity”.

What does the source list for CC(C)=CCC/C(C)=C/CNCCNC(c1ccccc1)c1cccnc1 (stereo not drawn) [XHJ-5-8, N-(phenyl-pyridin-3-yl-methyl)-N′-(3,7-dimethyl-oct-2,6-dienyl)-ethane-1,2-diamine]?
MIC ([1]; H37RV): 16 µg/mL (≈ 44 µM); in vitro anti-tuberculosis activity (in words) [1]: better activity

For CC(C)=CCC/C(C)=C/CNCCNC(c1ccccn1)c1ccccn1 [XHJ-5-14, N-(dipyridin-2-yl-methyl)-N′-(3,7-dimethyl-oct-2,6-dienyl)-ethane-1,2-diamine], which MIC ([1]; H37RV) is on record?
Its MIC is 4 µg/mL (≈ 11 µM).

What about the “in vitro anti-tuberculosis activity (in words)” value [1] of the same molecule?
The value was “better activity”.

With C(CNC1C2CC3CC(C2)CC1C3)NC1CC1 (stereo not drawn) [XHJ-5-18, N-(adamantan-2-yl)-N′-cyclopropyl-ethane-1,2-diamine] as the molecule, how does the melting point read?
Its melting point is 197 to 200 °C.

And the MIC [1, 2]?
The MIC was > 32 µg/mL.
